Measured values published in patent US12497408B2, “Tetracyclic compounds and methods for the treatment of Zika virus infection” (priority 2021, dated 2025).

System: ZIKV
Experiment: ZIKV reporter virus-based antiviral screening on Huh7 cells
Format: cell-based, Zika virus
Details: Huh7 cells infected with recombinant luciferase reporter ZIKV (MOI about 0.1), 48 hrs, luciferase signal; read-out: EC50
Description: Protocol for ZIKV reporter virus-based antiviral screening on Huh7 cells:
• Human hepatocyte-derived carcinoma cell line (Huh7) 2. Reagents • ViviRen™ Live Cell Substrate (Promega, Cat #E6492) or Nano Glo assay system (Promega: N1130) • White opaque 96-well TC-treated microplates (Corning, Cat #3916) • 96-well Clear V-Bottom TC-treated Microplate (Corning, Cat #3894) • Complete cell culture media: DMEM (Gibco, Cat #10569) supplemented with 10% FBS (HyClone, Cat #SH30071.03IH25-40)+1% MEM Non-Essential Amino Acids Solution 100×(Gibco, Cat #11140050)+1% Penicillin-Streptomycin (10,000 U/mL) (Gibco, Cat #15140122). • Assay media: DMEM media (Gibco, Cat #31053028) supplemented with 2% FBS, 2% GlutaMAX™ Supplement (Gibco Cat #35050061), 1% Sodium Pyruvate solution (Gibco, Cat #11360070), 1% MEM Non-Essential Amino Acids Solution 100× and 1% Penicillin-Streptomycin (10,000 U/mL). • Trypsin-EDTA solution (Gibco, Cat #25200056) 3. Virus • Recombinant ZIKV strain with Renilla luciferase gene (strain FSS-Rlu) or Nano luciferase gene (Strain PRV-Nano, Dakar-Nano) 4. Instruments • BioTek Cytation 5 or other plate-readers for chemiluminescence detection model. • Eppendorf plate centrifuge • Plate shaker • Eppendorf multichannel pipettes Procedures Day 1: Preparation of Cells • Human hepatocyte-derived carcinoma cell line (Huh7) cells were detached from a T-175 flask by using a Trypsin-EDTA solution. The detached cells were suspended in complete culture media in a sterile 50-ml conical tube. • The 50-ml conical tube was centrifuged at 1200×rpm for 3 min at room temperature. • The cells were resuspended in assay media. The cell numbers were counted, and the cells diluted to a density of 3×10^5 cells/ml. • The cells were plated at 50 μl cells per well in White opaque 96-well plates (assay plates). Gently shake the plates to ensure cells to attach to the plate evenly. • The plated cells were incubated in a humidified incubator (37° C. with 5% CO2). Day 2: Infection • 1) Nine serial (2-fold or 3-fold) concentrated compounds were prepared using 90% DMSO solution and DMSO controls in a clear V-bottom 96-well plate (compound plate). • For example:
• 2) The reporter virus stock was diluted to a concentration of 3×10^4 FFU (FFU: focus-forming unit)/ml using the assay media. 200 μl diluted virus per well was aliquoted into a clear V-bottom 96-well plate (mixing plate). • 3) 1 μl above 400×concentrated compound dilutions was added from the compound plate to each well of the mixing plate. The plates were shaken on a plate shaker for 5 min. • 4) 50 μl compound-virus mixture was added into each well of the assay plates (the MOI is about 0.1). The plates were shaken gently by mixing the virus evenly. • An example of the format for assay plate:
• control. • 5) The plates were centrifuged at 1000 rpm for 15 s. • 6) The plates were incubated at 37° C. with 5% CO2 in a humidified incubator for 48 hrs. Day 4: Read Luciferase Signals • 7) The ViviRen™ Live Cell Substrate was diluted in assay media for 3000× folds. 25 μl of diluted substrates was added into each well of the assay plates. • For Nano-Glo assay system, 50 μl diluted substrates (50×fold diluted from the stock in assay buffer) were added. • 8) The plates were incubated at room temperature for 5 min. • 9) Optimally, cell viability is measured using the Promega Cell-titer Glo kit (only used when ZIKV-Rlu was used for infection). • 10) Luciferase signals were read using the Cytation 5 with gain value of 120-150. Data Analysis • a. The luciferase signals from DMSO-treated groups (un-treated controls) were set as 100%. The relative luciferase signals were obtained by normalizing the luciferase signals from each dilution-treated group to that of the controls. • b.

| Structure (SMILES) | EC50 [nM] |
| --- | --- |
| CC[C@H](C)[C@H](NC(=O)OC)C(=O)N1C[C@@H](C)C[C@H]1c1nc(Cl)c(-c2cc3c4c(c2)OCc2cc(-c5[nH]c([C@@H]6C[C@H](C)CN6C(=O)[C@@H](NC(=O)OC)[C@@H](C)CC)nc5C(C)C)cc(c2-4)OC3)[nH]1 [Compound 73, methyl ((2S,3S)-1-((2S,4S)-2-(5-(7-(4-chloro-2-((2S,4S)-1-((methoxycarbonyl)-1-isoleucyl)-4-methylpyrrolidin-2-yl)-1H-imidazol-5-yl)-5,10-dihydrochromeno[5,4,3-cde]chromen-2-yl)-4-isopropyl-1H-imidazol-2-yl)-4-methylpyrrolidin-1-yl)-3-methyl-1-oxopentan-2-yl)carbamate] | 3.2 |

Same assay, conditions: Zika virus, Huh-7, 48 h, Huh7 cells infected with recombinant luciferase reporter ZIKV (MOI about 0.1), luciferase signal

| Structure (SMILES) | EC50 [nM] |
| --- | --- |
| COC(=O)N[C@H](C(=O)N1CC2(CC2)C[C@H]1c1nc(Cl)c(-c2cc3c4c(c2)OCc2cc(-c5[nH]c([C@@H]6CC7(CC7)CN6C(=O)[C@@H](NC(=O)OC)C(C)C)nc5Cl)cc(c2-4)OC3)[nH]1)C(C)C [Compound 59, dimethyl ((2S,2′S)-((6S,6′S)-((5,10-dihydrochromeno[5,4,3-cde]chromene-2,7-diyl)bis(4-chloro-1H-imidazole-5,2-diyl))bis(5-azaspiro[2.4]heptane-6,5-diyl))bis(3-methyl-1-oxobutane-1,2-diyl))dicarbamate] | 1.5 |
| CC[C@H](C)[C@H](NC(=O)OC)C(=O)N1[C@H](c2nc(Cl)c(-c3cc4c5c(c3)OCc3cc(-c6[nH]c([C@@H]7C[C@@H]8CCCC[C@@H]8N7C(=O)[C@@H](NC(=O)OC)[C@@H](C)CC)nc6Cl)cc(c3-5)OC4)[nH]2)C[C@@H]2CCCC[C@@H]21 [Compound 39, dimethyl ((2S,2′S,3S,3′S)-((2S,2′S,3aS,3a′S,7aS,7a′S)-((5,10-dihydrochromeno[5,4,3-cde]chromene-2,7-diyl)bis(4-chloro-1H-imidazole-5,2-diyl))bis(octahydro-1H-indole-2,1-diyl))bis(3-methyl-1-oxopentane-1,2-diyl))dicarbamate] | 10.9 |
| COC(=O)N[C@H](C(=O)N1CC(C)(C)C[C@H]1c1nc(Cl)c(-c2cc3c4c(c2)OCc2cc(-c5[nH]c([C@@H]6CC(C)(C)CN6C(=O)[C@@H](NC(=O)OC)C(C)(C)C(F)(F)F)nc5Cl)cc(c2-4)OC3)[nH]1)C(C)(C)C(F)(F)F [Compound 9, dimethyl ((2S,2′S)-((5S,5′S)-((5,10-dihydrochromeno[5,4,3-cde]chromene-2,7-diyl)bis(4-chloro-1H-imidazole-5,2-diyl))bis(3,3-dimethylpyrrolidine-5,1-diyl))bis(4,4,4-trifluoro-3,3-dimethyl-1-oxobutane-1,2-diyl))dicarbamate] | 4.6 |
| COC(=O)N[C@H](C(=O)N1[C@H](c2nc(Cl)c(-c3cc4c5c(c3)OCc3cc(-c6[nH]c([C@@H]7C[C@@H]8C[C@@H]8N7C(=O)[C@@H](NC(=O)OC)C(C)C)nc6Cl)cc(c3-5)OC4)[nH]2)C[C@@H]2C[C@@H]21)C(C)C [Compound 10, dimethyl ((2S,2′S)-((1S,1′S,3S,3′S,5S,5′S)-((5,10-dihydrochromeno[5,4,3-cde]chromene-2,7-diyl)bis(4-chloro-1H-imidazole-5,2-diyl))bis(2-azabicyclo[3.1.0]hexane-3,2-diyl))bis(3-methyl-1-oxobutane-1,2-diyl))dicarbamate] | 7 |
| CC[C@H](C)[C@H](NC(=O)OC)C(=O)N1CC2(CC2)C[C@H]1c1nc(Cl)c(-c2cc3c4c(c2)OCc2cc(-c5[nH]c([C@@H]6CC7(CC7)CN6C(=O)[C@@H](NC(=O)OC)[C@@H](C)CC)nc5Cl)cc(c2-4)OC3)[nH]1 [Compound 60, dimethyl ((2S,2′S,3S,3′S)-((6S,6′S)-((5,10-dihydrochromeno[5,4,3-cde]chromene-2,7-diyl)bis(4-chloro-1H-imidazole-5,2-diyl))bis(5-azaspiro[2.4]heptane-6,5-diyl))bis(3-methyl-1-oxopentane-1,2-diyl))dicarbamate] | 1.7 |
| CC[C@H](C)[C@H](NC(=O)OC)C(=O)N1[C@@H](C)CC[C@H]1c1nc(C(C)C)c(-c2cc3c4c(c2)OCc2cc(-c5[nH]c([C@@H]6CC[C@H](C)N6C(=O)[C@@H](NC(=O)OC)[C@@H](C)CC)nc5C(C)C)cc(c2-4)OC3)[nH]1 [Compound 41, dimethyl ((2S,2′S,3S,3′S)-((2S,2′S,5S,5′S)-((5,10-dihydrochromeno[5,4,3-cde]chromene-2,7-diyl)bis(4-isopropyl-1H-imidazole-5,2-diyl))bis(2-methylpyrrolidine-5,1-diyl))bis(3-methyl-1-oxopentane-1,2-diyl))dicarbamate] | 2.8 |
| COC(=O)N[C@H](C(=O)N1C[C@@H](C)C[C@H]1c1nc(C(C)C)c(-c2cc3c4c(c2)OCc2cc(-c5[nH]c([C@@H]6C[C@H](C)CN6C(=O)[C@@H](NC(=O)OC)C(C)C)nc5C(C)C)cc(c2-4)OC3)[nH]1)C(C)C [Compound 72, dimethyl ((2S,2′S)-((3S,3′S,5S,5′S)-((5,10-dihydrochromeno[5,4,3-cde]chromene-2,7-diyl)bis(4-isopropyl-1H-imidazole-5,2-diyl))bis(3-methylpyrrolidine-5,1-diyl))bis(3-methyl-1-oxobutane-1,2-diyl))dicarbamate] | 11.8 |
| CC[C@H](C)[C@H](NC(=O)OC)C(=O)N1C[C@H](F)C[C@H]1c1nc(Cl)c(-c2cc3c4c(c2)OCc2cc(-c5[nH]c([C@@H]6C[C@@H](F)CN6C(=O)[C@@H](NC(=O)OC)[C@@H](C)CC)nc5Cl)cc(c2-4)OC3)[nH]1 [Compound 54, dimethyl ((2S,2′S,3S,3′S)-((3R,3′R,5S,5′S)-((5,10-dihydrochromeno[5,4,3-cde]chromene-2,7-diyl)bis(4-chloro-1H-imidazole-5,2-diyl))bis(3-fluoropyrrolidine-5,1-diyl))bis(3-methyl-1-oxopentane-1,2-diyl))dicarbamate] | 8 |
| C=C(C)c1nc([C@@H]2C[C@H](C)CN2C(=O)[C@@H](NC(=O)OC)C(C)C)[nH]c1-c1cc2c3c(c1)OCc1cc(-c4[nH]c([C@@H]5C[C@H](C)CN5C(=O)[C@@H](NC(=O)OC)C(C)C)nc4C(=C)C)cc(c1-3)OC2 [Compound 71, dimethyl ((2S,2′S)-((3S,3′S,5S,5′S)-((5,10-dihydrochromeno[5,4,3-cde]chromene-2,7-diyl)bis(4-(prop-1-en-2-yl)-1H-imidazole-5,2-diyl))bis(3-methylpyrrolidine-5,1-diyl))bis(3-methyl-1-oxobutane-1,2-diyl))dicarbamate] | 36.4 |
| COC(=O)N[C@H](C(=O)N1C[C@@H](OC)C[C@H]1c1nc(Cl)c(-c2cc3c4c(c2)OCc2cc(-c5[nH]c([C@@H]6C[C@H](OC)CN6C(=O)[C@@H](NC(=O)OC)C(C)C)nc5Cl)cc(c2-4)OC3)[nH]1)C(C)C [Compound 4, dimethyl ((2S,2′S)-((3S,3′S,5S,5′S)-((5,10-dihydrochromeno[5,4,3-cde]chromene-2,7-diyl)bis(4-chloro-1H-imidazole-5,2-diyl))bis(3-methoxypyrrolidine-5,1-diyl))bis(3-methyl-1-oxobutane-1,2-diyl))dicarbamate] | 19.2 |
| COC(=O)N[C@H](C(=O)N1[C@@H](C)CC[C@H]1c1nc(Cl)c(-c2cc3c4c(c2)OCc2cc(-c5[nH]c([C@@H]6CC[C@H](C)N6C(=O)[C@@H](NC(=O)OC)C(C)(C)C)nc5Cl)cc(c2-4)OC3)[nH]1)C(C)(C)C [Compound 31, dimethyl ((2S,2′S)-((2S,2′S,5S,5′S)-((5,10-dihydrochromeno[5,4,3-cde]chromene-2,7-diyl)bis(4-chloro-1H-imidazole-5,2-diyl))bis(2-methylpyrrolidine-5,1-diyl))bis(3,3-dimethyl-1-oxobutane-1,2-diyl))dicarbamate] | 1.1 |
